From the supplement of paper PMC13380429

Experiments:
Details in all cases: 72 h
HepG2 [1] = experiment: drug sensitivity score (DSS) for viability; higher = more toxic; extreme values may be limits of the assay
Caco-2 [2] = experiment: as above
Calu-3 [3] = experiment: as above
U2OS [4] = experiment: as above
Vero E6 [5] = experiment: as above
HepG2 [6] = experiment: cell viability relative to DMSO; higher = less toxic
Caco-2 [7] = experiment: as above
Calu-3 [8] = experiment: as above
U2OS [9] = experiment: as above
Vero E6 [10] = experiment: as above
HepG2 [11] = experiment: relative viability EC50 (midpoint between 100% and the lowest measured viability); higher = less toxic
Caco-2 [12] = experiment: as above
Calu-3 [13] = experiment: as above
U2OS [14] = experiment: as above
Vero E6 [15] = experiment: as above

SMILES | drug sensitivity score (HepG2 [1]) | drug sensitivity score (Caco-2 [2]) | drug sensitivity score (Calu-3 [3]) | drug sensitivity score (U2OS [4]) | drug sensitivity score (Vero E6 [5]) | cell viability (HepG2 [6]; 1 nM) [%] | cell viability (HepG2 [6]; 10 nM) [%] | cell viability (HepG2 [6]; 100 nM) [%] | cell viability (HepG2 [6]; 1000 nM) [%] | cell viability (HepG2 [6]; 10000 nM) [%] | cell viability (Caco-2 [7]; 1 nM) [%] | cell viability (Caco-2 [7]; 10 nM) [%] | cell viability (Caco-2 [7]; 100 nM) [%] | cell viability (Caco-2 [7]; 1000 nM) [%] | cell viability (Caco-2 [7]; 10000 nM) [%] | cell viability (Calu-3 [8]; 1 nM) [%] | cell viability (Calu-3 [8]; 10 nM) [%] | cell viability (Calu-3 [8]; 100 nM) [%] | cell viability (Calu-3 [8]; 1000 nM) [%] | cell viability (Calu-3 [8]; 10000 nM) [%] | cell viability (U2OS [9]; 1 nM) [%] | cell viability (U2OS [9]; 10 nM) [%] | cell viability (U2OS [9]; 100 nM) [%] | cell viability (U2OS [9]; 1000 nM) [%] | cell viability (U2OS [9]; 10000 nM) [%] | cell viability (Vero E6 [10]; 1 nM) [%] | cell viability (Vero E6 [10]; 10 nM) [%] | cell viability (Vero E6 [10]; 100 nM) [%] | cell viability (Vero E6 [10]; 1000 nM) [%] | cell viability (Vero E6 [10]; 10000 nM) [%] | relative viability EC50 (HepG2 [11]) [µM] | relative viability EC50 (Caco-2 [12]) [µM] | relative viability EC50 (Calu-3 [13]) [µM] | relative viability EC50 (U2OS [14]) [µM] | relative viability EC50 (Vero E6 [15]) [µM]
CCCNC(C)(C)COC(=O)c1ccccc1 [meprylcaine] | 0 | 0 | 0 | 0 | 0 | 86.3 | 100 | 94 | 95.6 | 91.9 | 98.1 | 104 | 94.3 | 106 | 96.6 | 102 | 112 | 105 | 99.9 | 94.5 | 98.6 | 98.2 | 103 | 97.7 | 99.5 | 96 | 103 | 91.8 | 95.2 | 103 | > 10 | > 10 | > 10 | > 10 | > 10
CN1C[C@H](CNC(=O)OCc2ccccc2)C[C@@H]2c3cccc4c3c(cn4C)C[C@H]21 [metergoline] | 0.6 | 0 | 0 | 0 | 0.4 | 101 | 98.5 | 100 | 96.9 | 84.6 | 116 | 91.3 | 101 | 88.1 | 99.6 | 101 | 92.2 | 101 | 89.8 | 104 | 95.4 | 99.1 | 104 | 96.4 | 95.8 | 105 | 105 | 95.2 | 94 | 84.2 | > 10 | > 10 | > 10 | > 10 | > 10
CC(=O)Nc1c(I)c(C(=O)O)c(I)c(N(C)C(C)=O)c1I [metrizoic-acid] | 0 | 0 | 0 | 0 | 0 | 107 | 104 | 105 | 96.6 | 110 | 92 | 102 | 94 | 97.3 | 92.8 | 96.6 | 103 | 98.3 | 94.9 | 107 | 97.6 | 105 | 95.9 | 105 | 96.5 | 104 | 98.6 | 105 | 98.8 | 101 | > 10 | > 10 | > 10 | > 10 | > 10
Cc1cc(-c2ccccc2)nnc1NCCN1CCOCC1 [minaprine] | 0 | 0 | 0.2 | 0 | 0 | 96.3 | 99.6 | 96.8 | 94.2 | 93.6 | 92 | 96 | 98.4 | 96.1 | 89.3 | 102 | 96.8 | 99.1 | 89.4 | 91.7 | 104 | 97.8 | 99.6 | 98.9 | 103 | 101 | 98.1 | 98.8 | 100 | 94.5 | > 10 | > 10 | > 10 | > 10 | > 10
Nc1cccc2c(=O)[nH][nH]c(=O)c12 [monosodium-alpha-luminol] | 0 | 0 | 0 | 0 | 0 | 95.9 | 89.7 | 104 | 89.8 | 113 | 93 | 88.6 | 90.3 | 92.7 | 97.7 | 98.5 | 100 | 97.4 | 105 | 105 | 98 | 102 | 95.4 | 102 | 103 | 102 | 92.7 | 96.1 | 95.2 | 106 | > 10 | > 10 | > 10 | > 10 | > 10
CO[C@@]1(NC(=O)C(C(=O)O)c2ccc(O)cc2)C(=O)N2C(C(=O)O)=C(CSc3nnnn3C)CO[C@@H]21 (stereo not given in full) [moxalactam] | 0 | 0 | 0 | 0 | 0 | 102 | 95.2 | 117 | 84.9 | 117 | 92.6 | 99.7 | 96.7 | 95.9 | 105 | 93.2 | 100 | 92.1 | 105 | 98 | 94.8 | 98.2 | 96.1 | 103 | 104 | 98.1 | 97.5 | 98.1 | 92.7 | 100 | > 10 | > 10 | > 10 | > 10 | > 10
COc1ccc2cc(CCC(C)=O)ccc2c1 [nabumetone] | 0 | 0 | 0 | 0 | 0.3 | 99.8 | 97.8 | 105 | 90.8 | 95.8 | 111 | 90.4 | 89.2 | 97.4 | 94.5 | 98.2 | 90.6 | 86.7 | 106 | 95.4 | 98.5 | 95.2 | 99.9 | 93.3 | 101 | 101 | 104 | 101 | 93.8 | 88.1 | > 10 | > 10 | > 10 | > 10 | > 10
COc1ccc(-c2nc(-c3ccc(-c4cccc(Cl)c4)o3)[nH]c2-c2ccc(OC)cc2)cc1 [neurodazine] | 0.3 | 0.2 | 0.6 | 0 | 0 | 112 | 99.5 | 96.3 | 98.2 | 86.2 | 106 | 94.9 | 109 | 103 | 84.4 | 91.4 | 96 | 97.2 | 79.6 | 89.6 | 100 | 99 | 105 | 96.3 | 96.1 | 109 | 103 | 98.4 | 102 | 96.6 | > 10 | > 10 | > 10 | > 10 | > 10
O=C1N=C2SCCN2C(=O)C1Cc1ccc(Cl)cc1 (stereo not given) [nuclomedone] | 0 | 0 | 0 | 0 | 0 | 93.7 | 89.1 | 95.3 | 96.4 | 92 | 93.1 | 96.5 | 91.9 | 92.2 | 94.9 | 91.5 | 104 | 95.5 | 99.9 | 90.5 | 98.4 | 97.6 | 95.6 | 95.6 | 96.4 | 96.9 | 95.5 | 95.1 | 104 | 93.4 | > 10 | > 10 | > 10 | > 10 | > 10
CCCCCCCC/C=C\CCCCCCCC(=O)NCCO [oleoylethanolamide] | 0 | 0 | 0 | 0 | 0 | 92.1 | 96.1 | 103 | 90.2 | 104 | 86.2 | 99.2 | 92.3 | 104 | 106 | 97.2 | 101 | 97.1 | 102 | 101 | 99.8 | 100 | 97 | 103 | 103 | 106 | 102 | 105 | 96.4 | 103 | > 10 | > 10 | > 10 | > 10 | > 10
COc1cccc(C(=O)CCN[C@@H](C)[C@H](O)c2ccccc2)c1 [oxyfedrine] | 1.3 | 0 | 0 | 0 | 0 | 101 | 105 | 98.9 | 91.3 | 79.8 | 99.3 | 101 | 108 | 102 | 95.8 | 86.3 | 98.6 | 113 | 95.6 | 107 | 97.8 | 103 | 98.5 | 99.9 | 95.4 | 103 | 99.8 | 99.2 | 104 | 101 | > 10 | > 10 | > 10 | > 10 | > 10
